Measured values as given in patent EP0835868A1, “2-Aryl-3-aminoaryloxynaphthyl compounds, intermediates, compositions and methods” (ELI LILLY AND COMPANY, priority 1996, dated 1998).
Where a name gives a salt, the structure may show the parent alone. Marks after values point to notes of the source that are not given here.

Columns and labels:
[1] = test system: female Sprague Dawley rats; test: Estrogen deprivation model in ovariectomized rats: wet uterine weight; assay type: in vivo; conditions: daily for 4 days, OVX rats, % increase versus the ovariectomized controls
Method: (§1) In the examples illustrating the methods, an estrogen deprivation model was used in which effects of different treatments upon circulating lipids were determined.
(§2) Seventy-five day old female Sprague Dawley rats (weight range of 200 to 225g) are obtained from Charles River Laboratories (Portage, MI). The animals are either bilaterally ovariectomized (OVX) or exposed to a Sham surgical procedure at Charles River Laboratories, and then shipped after one week. Upon arrival, they are housed in metal hanging cages in groups of 3 or 4 per cage and have ad libitum access to food (calcium content approximately 0.5%) and water for one week. Room temperature is maintained at 22.2° ± 1.7° C with a minimum relative humidity of 40%. The photoperiod in the room is 12 hours light and 12 hours dark. Dosing Regimen Tissue Collection. After a one week acclimation period (therefore, two weeks post-OVX) daily dosing with test compound is initiated. 17a-ethynyl estradiol or the test compound are given orally, unless otherwise stated, as a suspension in 1% carboxymethylcellulose or dissolved in 20% cyclodextrin. Animals are dosed daily for 4 days. Following the dosing regimen, animals are weighed and anesthetized with a ketamine: Xylazine (2:1, V:V) mixture and a blood sample is collected by cardiac puncture. The animals are then sacrificed by asphyxiation with CO2, the uterus is removed through a midline incision, and a wet uterine weight is determined.

[2] = test system: Eosinophil peroxidase; test: Uterine Eosinophil Peroxidase (EPO) Assay on uteri of dosed ovariectomized rats; assay type: in vivo, Sprague Dawley rats; conditions: daily for 4 days, OVX rats
Source text: as §2
(§3) Cholesterol Analysis. Blood samples are allowed to clot at ambient temperature for 2 hours, and serum is obtained following centrifugation for 10 minutes at 3000 rpm. Serum cholesterol is determined using a Boehringer Mannheim Diagnostics high performance cholesterol assay. Briefly, the cholesterol is oxidized to cholest-4-en-3-one […]. The hydrogen peroxide is then reacted with phenol and 4-aminophenazone in the presence of peroxidase to produce a p-quinone imine dye, which is read spectrophotemetrically at 500 nm. Cholesterol concentration is then calculated against a standard curve. The entire assay is automated using a Biomek Automated Workstation. Uterine Eosinophil Peroxidase (EPO) Assay. Uteri are kept at 4° C until time of enzymatic analysis. The uteri are then homogenized in 50 volumes of 50 mM Tris buffer (pH - 8.0) containing 0.005% Triton X-100. Upon addition of 0.01% hydrogen peroxide and 10 mM O-phenylenediamine (final concentrations) in Tris buffer, increase in absorbance is monitored for one minute at 450 nm. The presence of eosinophils in the uterus is an indication of estrogenic activity of a compound. The maximal velocity of a 15 second interval is determined over the initial, linear portion of the reaction curve. Source of Compound: 17a-ethynyl estradiol was obtained from Sigma Chemical Co., St. Louis, MO.

[3] = test system: female Sprague Dawley rats; test: Estrogen deprivation model in ovariectomized rats: serum cholesterol analysis; assay type: in vivo; conditions: daily for 4 days, OVX rats, decrease versus ovariectomized controls
Method: as §1, §2, §3

Compound | Uterine Weight (% Inc.) ([1]; 0.1 mg/kg PO) | Uterine Eosinophil (Vmax) ([2]; 0.1 mg/kg PO) | Serum Cholesterol (% Dec.) ([3]; 0.1 mg/kg PO) | Uterine Weight (% Inc.) ([1]; 1.0 mg/kg PO) | Uterine Weight (% Inc.) ([1]; 10.0 mg/kg PO) | Uterine Eosinophil (Vmax) ([2]; 1.0 mg/kg PO) | Uterine Eosinophil (Vmax) ([2]; 10.0 mg/kg PO) | Serum Cholesterol (% Dec.) ([3]; 1.0 mg/kg PO) | Serum Cholesterol (% Dec.) ([3]; 10.0 mg/kg PO) | Uterine Weight (% Inc.) ([1]; 0.01 mg/kg PO) | Uterine Eosinophil (Vmax) ([2]; 0.01 mg/kg PO) | Serum Cholesterol (% Dec.) ([3]; 0.01 mg/kg PO)
C#C[C@]1(O)CC[C@H]2[C@@H]3CCc4cc(O)ccc4[C@H]3CC[C@@]21C [EE2, 17-a-Ethynyl-estradiol, reference compound] | 96.0* % Inc. | 54.6* | 75.9* % Dec. |  |  |  |  |  |  |  |  | 
O=C(CN1CCCCC1)Nc1ccc(Oc2c(-c3ccc(O)cc3)ccc3cc(O)ccc23)cc1 [Example 2, 1-[4-[2-(1-Piperidinyl)acetylamido]phenoxy-2-(4-hydroxyphenyl)-6-hydroxynaphthalene Hydrochloride] | 13.6 % Inc. | 1.8 | 27 % Dec. | 59.0* % Inc. | 107.0* % Inc. | 11.7 | 71.1* | 66.4* % Dec. | 57.6* % Dec. |  |  | 
Oc1ccc(-c2ccc3cc(O)ccc3c2Oc2ccc(NCCN3CCCCC3)cc2)cc1 [Example 4, 1-[4-[2-(1-Piperidinyl)ethylamino]phenoxy]-2-(4-hydroxyphenyl)-6-hydroxynaphthalene] | 39.8* % Inc. | 4.5 | 59.9* % Dec. | 25.4 % Inc. |  | 5.4 |  | 75.3* % Dec. |  | 7.1 % Inc. | 2.7 | 20.8* % Dec.
